Measurements published in PubChem BioAssay AID624447 (The Scripps Research Institute Molecular Screening Center, 2012).
The source made the active and inactive calls.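 Rule for the calls: active = PP2A blockers whose half-maximal inhibitory concentration IC50 falls below 50 µM; inactive = IC50 at or above 50 µM.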

Molecular target: Serine/threonine-protein phosphatase 2A catalytic subunit alpha isoform (Bos taurus) (UniProt P67774)
Test: dose-dependent inhibition of bovine PP2A – biochemical, bovine brain PP2A, 32P-phosphohistone, dose response, round 5, selectivity assay for PP5 inhibitor project, late-stage follow-up (AID 624447)
Conditions: purified bovine PP2A, 32P-phosphohistone dephosphorylation, scintillation

Serine/threonine-protein phosphatase 2A catalytic subunit alpha isoform (Bos taurus), sequence (P67774 whole entry, looked up, canonical isoform): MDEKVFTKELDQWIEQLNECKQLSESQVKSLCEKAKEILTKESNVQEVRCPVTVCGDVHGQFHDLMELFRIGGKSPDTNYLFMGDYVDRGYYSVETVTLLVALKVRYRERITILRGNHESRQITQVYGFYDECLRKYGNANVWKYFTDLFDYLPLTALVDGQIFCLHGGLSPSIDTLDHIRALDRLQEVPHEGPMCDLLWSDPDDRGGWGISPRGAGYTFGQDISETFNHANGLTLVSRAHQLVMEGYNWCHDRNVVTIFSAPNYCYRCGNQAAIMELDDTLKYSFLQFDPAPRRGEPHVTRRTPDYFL

## CC(C)Oc1ccccc1-c1n[nH]nc1C(=O)O
  IC50: inactive
